Assay [1] concerns the target T1, HCV NS3/4A protease complex (UniProt P27958, C1454S/C1711G, species not given).
T1 construct: fused on or other part: Three-lysine solubilising tail at the C-terminus of NS4A
In words: Recombinant HCV NS3/4A protease complex FRET peptide assay (strain not stated). In kind it is biochemical. The conditions noted are these: NS3/4A protease enzyme assay, read-out: Activity Range IC50. The source says:
(§1) The purpose of this in vitro assay was to measure the inhibition of HCV NS3 protease complexes, derived from the BMS strain, H77 strain or J416S strain, as described below, by compounds of the present invention. This assay provides an indication of how effective compounds of the present invention would be in inhibiting HCV proteolytic activity.
Serum from an HCV-infected patient was obtained from Dr. T. Wright, San Francisco Hospital. An engineered full-length cDNA (compliment deoxyribonucleic acid) template of the HCV genome (BMS strain) was constructed from DNA fragments obtained by reverse transcription-PCR (RT-PCR) of serum RNA (ribonucleic acid) and using primers selected on the basis of homology between other genotype 1a strains. From the determination of the entire genome sequence, a genotype 1a was assigned to the HCV isolate according to the classification of Simmonds et al. (See P Simmonds, K A Rose, S Graham, S W Chan, F McOmish, B C Dow, E A Follett, P L Yap and H Marsden, J. Clin. Microbiol., 31(6), 1493–1503 (1993)). […] The infectious clones, H77 (1a genotype) and J4L6S (1b genotype) were obtained from R. Purcell (NIH) and the sequences are published in Genbank (AAB67036, see Yanagi, M., Purcell, R. H., Emerson, S. U. and Bukh, J. Proc. Natl. Acad. Sci. U.S.A. 94(16), 8738–8743 (1997); AF054247, see Yanagi, M., St Claire, M., Shapiro, M., Emerson, S. U., Purcell, R. H. and Bukh, J, Virology 244 (1), 161–172. (1998)).
The H77 and J4L6S strains were used for production of recombinant NS3/4A protease complexes. DNA encoding the recombinant HCV NS3/4A protease complex (amino acids 1027 to 1711) for these strains were manipulated as described by P. Gallinari et al. (see Gallinari P, Paolini C, Brennan D, Nardi C, Steinkuhler C, De Francesco R. Biochemistry. 38(17):5620–32, (1999)). Briefly, a three-lysine solubilizing tail was added at the 3′-end of the NS4A coding region. The cysteine in the P1 position of the NS4A–NS4B cleavage site (amino acid 1711) was changed to a glycine to avoid the proteolytic cleavage of the lysine tag. Furthermore, a cysteine to serine mutation was introduced by PCR at amino acid position 1454 to prevent the autolytic cleavage in the NS3 helicase domain. The variant DNA fragment was cloned in the pET21b bacterial expression vector (Novagen) and the NS3/4A complex was expressed in Escherichia. coli strain BL21 (DE3) (Invitrogen) following the protocol described by P. Gallinari et al. (see Gallinari P, Brennan D, Nardi C, Brunetti M, Tomei L, Steinkuhler C, De Francesco R., J Virol. 72(8):6758–69 (1998)) with modifications. Briefly, the NS3/4A protease complex expression was induced with 0.5 millimolar (mM) Isopropyl β-D-1-thiogalactopyranoside (IPTG) for 22 hours (h) at 20° C. A typical fermentation (1 Liter (L)) yielded approximately 10 grams (g) of wet cell paste. The cells were resuspended in lysis buffer (10 mL/g) consisting of 25 mM N-(2-Hydroxyethyl)Piperazine-N′-(2-Ethane Sulfonic acid) (HEPES), pH 7.5, 20% glycerol, 500 mM Sodium Chloride (NaCl), 0.5% Triton X-100, 1 microgram/milliliter (“μg/mL”) lysozyme, 5 mM Magnesium Chloride (MgCl2), 1 μg/ml Dnasel, 5 mM β-Mercaptoethanol (βME), Protease inhibitor—Ethylenediamine Tetraacetic acid (EDTA) free (Roche), homogenized and incubated for 20 minutes (min) at 4° C. The homogenate was sonicated and clarified by ultra-centrifugation at 235000 g for 1 h at 4° C. Imidazole was added to the supernatant to a final concentration of 15 mM and the pH adjusted to 8.0. The crude protein extract was loaded on a Nickel—Nitrilotriacetic acid (Ni-NTA) column pre-equilibrated with buffer B (25 mM HEPES, pH 8.0, 20% glycerol, 500 mM NaCl, 0.5% Triton X-100, 15 mM imidazole, 5 mM βME). The sample was loaded at a flow rate of 1 mL/min. The column was washed with 15 column volumes of buffer C (same as buffer B except with 0.2% Triton X-100). The protein was eluted with 5 column volumes of buffer D (same as buffer C except with 200 mM Imidazole). […]

The target of assay [2] is T2, NS3/4A protease complex, J4L6S strain (Hepatitis C virus genotype 1b, UniProt O92972, C1454S/C1711G).
T2 construct: DNA encoding the recombinant HCV NS3/4A protease complex (amino acids 1027 to 1711) for these strains; inferred from pET21b vector and Ni-NTA purification; made in house; host or cells: Escherichia coli BL21 (DE3), pET21b
T2 sequence (O92972 1027-1711 C1454S/C1711G, one chain of several): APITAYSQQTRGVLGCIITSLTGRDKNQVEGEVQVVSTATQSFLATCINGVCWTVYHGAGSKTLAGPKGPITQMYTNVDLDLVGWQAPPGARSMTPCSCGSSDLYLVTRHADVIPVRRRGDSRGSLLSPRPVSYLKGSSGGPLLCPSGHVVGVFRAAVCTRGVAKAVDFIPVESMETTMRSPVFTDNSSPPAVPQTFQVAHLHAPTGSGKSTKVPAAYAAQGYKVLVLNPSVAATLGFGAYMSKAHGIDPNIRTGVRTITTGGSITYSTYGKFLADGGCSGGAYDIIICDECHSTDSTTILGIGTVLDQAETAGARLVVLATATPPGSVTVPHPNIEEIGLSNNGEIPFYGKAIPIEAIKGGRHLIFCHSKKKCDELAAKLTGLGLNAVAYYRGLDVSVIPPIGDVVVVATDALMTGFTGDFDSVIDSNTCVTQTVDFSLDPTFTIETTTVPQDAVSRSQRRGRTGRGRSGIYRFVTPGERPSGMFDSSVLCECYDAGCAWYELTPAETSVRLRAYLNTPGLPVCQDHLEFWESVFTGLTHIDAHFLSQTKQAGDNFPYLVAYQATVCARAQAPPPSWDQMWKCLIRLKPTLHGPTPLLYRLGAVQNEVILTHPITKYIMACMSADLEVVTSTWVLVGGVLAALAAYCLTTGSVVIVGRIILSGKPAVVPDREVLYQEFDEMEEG
In words: Recombinant HCV NS3/4A protease complex FRET peptide assay, J4L6S strain. Format: biochemical, HCV genotype 1b (J4L6S).
From the text: as §1
Serum from an HCV-infected patient was obtained from Dr. T. Wright, San Francisco Hospital. An engineered full-length cDNA (compliment deoxyribonucleic acid) template of the HCV genome (BMS strain) was constructed from DNA fragments obtained by reverse transcription-PCR (RT-PCR) of serum RNA (ribonucleic acid) and using primers selected on the basis of homology between other genotype 1a strains. From the determination of the entire genome sequence, a genotype 1a was assigned to the HCV isolate according to the classification of Simmonds et al. (See P Simmonds, K A Rose, S Graham, S W Chan, F McOmish, B C Dow, E A Follett, P L Yap and H Marsden, J. Clin. Microbiol., 31(6), 1493–1503 (1993)). […]

Assay [3] relates to human pancreatic chymotrypsin. Nature of the assay: Specificity assay, chymotrypsin. Format: biochemical. The conditions noted are these: 2 h enzyme-inhibitor pre-incubation. The procedure:
The specificities of compounds of the present invention were determined against a variety of serine proteases: human neutrophil elastase (HNE), porcine pancreatic elastase (PPE) and human pancreatic chymotrypsin and one cysteine protease: human liver cathepsin B. In all cases a 96-well plate format protocol using colorimetric p-nitroaniline (pNA) substrate specific for each enzyme was used as described previously (PCT Patent Application No. WO 00/09543) with some modifications to the serine protease assays. All enzymes were purchased from Sigma while the substrates were from Bachem.
Each assay included a 2 h enzyme-inhibitor pre-incubation at room temperature followed by addition of substrate and hydrolysis to ˜30% conversion as measured on a Spectramax Pro microplate reader. Compound concentrations varied from 100 to 0.4 μM depending on their potency. […]
The percentage of inhibition was calculated using the formula: [1−((UVinh−UVblank)/(UVctl−UVblank))]×100 […]

Bounds are passed on as bounds.

In general, IC50 refers to the concentration that gives 50% inhibition. Consider `C=CC1C[C@]1(NC(=O)[C@@H]1C[C@@H](Oc2cc(-c3ccccc3)nc3cc(OC)ccc23)CN1C(=O)[C@@H](NC(=O)OC)C(C)(C)C)C(=O)NS(=O)(=O)N(C)Cc1ccccc1` (stereo partly drawn) [Compound 9], for which the IC50 in assay [1] is less than 150 nM; in assay [2] it was 41 nM; in assay [3] it was greater than 200000 nM.

The record behind these values is patent publication US7132504B2, “Hepatitis C virus inhibitors” (Bristol-Myers Squibb Company, priority 2003, dated 2006).
